# Measurements published in PMC7320180, “Hydroxamic acid derivatives as HDAC1, HDAC6 and HDAC8 inhibitors with antiproliferative activity in cancer cell lines” (Scientific Reports, 2020).
# pIC50: −log10 of the molar value.
# Assays:
# Format in all cases: cell-based
# [1] = test system: MCF-7 cells; assay: MTT cytotoxicity test, MCF-7; conditions: Homo sapiens; for inhibition at 50 µM: MCF7; for pIC50: MCF7, 72 h, read-out: IC50 MCF-7
# Method: (§1) All compounds were evaluated in triplicate using six points, 1/3 dilutions, with the highest concentration of 50 µM. The triplicate measurements were placed in three different 96-plates, and 1% DMSO was used as a negative control.
# (§2) The first sets of […] (GH38, GH18, GH27, FH38, FH18, […] and FH37) were evaluated in different cancer cell lines: HepG2, MCF-7, SH-SY5Y, MIA PaCa-2, and […]. Furthermore, the second series of eight compounds were evaluated using seven cell lines: SH-SY5Y which is a neuroblastoma cell line; HepG2, a hepatocellular carcinoma cell line; MIA PaCa-2, a human pancreatic carcinoma cell line; MCF-7, a breast cancer cell line; HCC1954, a basal-Her2+ breast carcinoma cell line; RCC4-VA, a renal carcinoma cell line with a VHL mutation; and RCC4-VHL, a renal carcinoma cell without the VHL mutation (wild type). The cells used were seeded in 96-well plates and left for 24 h (5% CO2 and 90% humidity, 50000 cells/well) and incubated for 3 days to study the cytotoxicity.
# [2] = test system: MIA PaCa-2 cells; assay: MTT cytotoxicity test, MIA PaCa-2; conditions: Homo sapiens; for inhibition at 50 µM: MIA PaCa-2; for pIC50: MIA PaCa-2, 72 h, read-out: IC50 MIA PaCa-2
# Method: as §1, §2
# [3] = test system: HepG2 cells; assay: MTT cytotoxicity test, HepG2; conditions: Homo sapiens; for inhibition at 50 µM: HepG2; for pIC50: HepG2, 72 h, read-out: IC50 HepG2
# Method: as §1, §2
SMILES,inhibition at 50 µM [1],pIC50 [1],inhibition at 50 µM [2],pIC50 [2],inhibition at 50 µM [3],pIC50 [3]
"Cc1ccc(C(=O)N[C@@H](Cc2ccccc2)C(=O)NO)cc1 [FH18, (S)-N-(1-(hydroxyamino)-1-oxo-3-phenylpropan-2-yl)-4-methylbenzamide]",41.2%,< 4.30,0.05%,< 4.30,5.52%,< 4.30
"CCCCc1ccc(C(=O)N[C@@H](Cc2ccccc2)C(=O)NO)cc1 [FH27, (S)-4-butyl-N-(1-(hydroxyamino)-1-oxo-3-phenylpropan-2-yl)benzamide]",37.6%,< 4.30,2.82%,< 4.30,35.4%,< 4.30
"CCCC(CCC)C(=O)N[C@@H](Cc1ccccc1)C(=O)NO [FH37, (S)-N-(1-(hydroxyamino)-1-oxo-3-phenylpropan-2-yl)-2-propylpentanamide]",49.1%,< 4.30,7.47%,< 4.30,48.6%,< 4.30
"O=C(N[C@@H](Cc1ccccc1)C(=O)NO)c1ccccc1 [FH38, (S)-N-(1-(hydroxyamino)-1-oxo-3-phenylpropan-2-yl)benzamide]",21%,< 4.30,0.43%,< 4.30,14.1%,< 4.30
"Cc1ccc(C(=O)NCC(=O)NO)cc1 [GH18, N-(2-(hydroxyamino)-2-oxoethyl)-4-methyl benzamide]",17.2%,< 4.30,4.44%,< 4.30,3.08%,< 4.30
"CCCCc1ccc(C(=O)NCC(=O)NO)cc1 [GH27, 4-butyl-N-(2-(hydroxyamino)-2-oxoethyl)benzamide]",40.4%,< 4.30,10.7%,< 4.30,1.38%,< 4.30
"O=C(CNC(=O)c1ccccc1)NO [GH38, N-(2-(hydroxyamino)-2-oxoethyl)benzamide]",16.1%,< 4.30,0.18%,< 4.30,1.01%,< 4.30
